Test results taken from paper PMC3821527 (Bioorganic & medicinal chemistry letters, 2013).

What was measured:
AAC(6′)-Ib [1] = target: T1, AAC(6′)-Ib (Klebsiella pneumoniae, UniProt P19650); assay: AAC; assay type: biochemical; settings: for inhibition of the acetylation of kanamycin A: 100 μM compound, 18 μM kanamycin A, 50 μM acetyl CoA, 10% DMSO
AAC(6′)-Ib [2] = target: T1, AAC(6′)-Ib; assay: AAC; assay type: biochemical; settings: Lineweaver-Burk plots; for mode of inhibition with respect to acetyl CoA: variable acetyl CoA; for mode of inhibition with respect to kanamycin A: variable kanamycin A

T1 sequence (P19650 whole entry): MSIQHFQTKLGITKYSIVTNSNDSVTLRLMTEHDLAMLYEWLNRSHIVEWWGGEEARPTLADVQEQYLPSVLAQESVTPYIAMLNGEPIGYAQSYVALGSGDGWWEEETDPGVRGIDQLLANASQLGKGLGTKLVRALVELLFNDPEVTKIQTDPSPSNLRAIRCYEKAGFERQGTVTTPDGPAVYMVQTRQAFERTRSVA

SMILES | inhibition of the acetylation of kanamycin A (AAC(6′)-Ib [1]) | mode of inhibition with respect to acetyl CoA (AAC(6′)-Ib [2]) | mode of inhibition with respect to kanamycin A (AAC(6′)-Ib [2]) | inhibitory activity in the presence of 0.01% Triton X-100 (AAC(6′)-Ib [1]; 0.01% Triton X-100, to rule out non-specific protein aggregation)
O=C(O)c1ccccc1-c1ccc(C=C2C(=O)N(c3ccccc3)C(=S)N(c3ccccc3)C2=O)o1 [Compound 2, 2-{5-[(4,6-dioxo-1,3-diphenyl-2-thioxotetrahydro-5(2H)-pyrimidinylidene)methyl]-2-furyl}benzoic acid] | significant inhibition | noncompetitive | competitive | 
O=C1NC(=O)N(c2ccc(Cl)cc2)C(=O)/C1=C\c1ccco1 [Compound 2b, 1-(4-chlorophenyl)-5-(2-furylmethylene)-2,4,6(1H,3H,5H)-pyrimidinetrione] | weaker inhibition |  |  | 
O=C1C(=Cc2ccco2)C(=O)N(c2ccccc2)C(=O)N1c1ccccc1 [Compound 2d] | lack of activity |  |  | 
Cc1cccc(N2C(=O)/C(=C/c3ccccc3OCc3ccc(C(=O)O)cc3)C(=O)NC2=S)c1 [Compound 1, 4-[(2-{[1-(3-methylphenyl)-4,6-dioxo-2-thioxotetrahydro-5(2H)-pyrimidinylidene]methyl}phenoxy)methyl]benzoic acid] | modest inhibition | noncompetitive | competitive | 
O=C1C(=Cc2ccco2)C(=O)N(c2ccccc2)C(=S)N1c1ccccc1 [Compound 2c] | lack of activity |  |  | 
O=C1/C(=C/c2ccco2)C(=O)N(c2ccc(Br)cc2)C(=S)N1c1ccccc1 [Compound 5309471] |  |  |  | did not show the same level of inhibitory activity
